In patent publication US20180256509A1, “Nanoparticle Compositions and Methods Thereof to Restore Vascular Integrity” (priority 2014, published 2018):

System: C57BL mice infused with LPS
Experiment: Endotoxemia study: vascular permeability (intravascular-extravascular intensity)
Assay type: in vivo
Conditions: 2 hours after LPS infusion; 10 mg/kg; FIG. 10
Description: In this study, the effect of treatment with curcumin-selenium nanoparticles was evaluated in animal models with endotoxemia. In particular, C57BL mice were first infused with 10 mg/kg of LPS (Lipopolysaccharides from E. coli serotype 0128:B12, Sigma Aldrich St. Louis, Mo.). The mice were then separated into 5 treatment groups: 1) no treatment; 2) control NP 10 mg/kg; 3) curcumin 10 mg/kg; 4) curcumin-NP 10 mg/kg (dose calculated based on curcumin concentration); and 5) curcumin-selenium-NP 10 mg/kg (dose calculated based on curcumin concentration). Treatments were administered 30 minutes after LPS infusion. No additional fluid therapies were applied, and food and water was available during observation time points. […] Vascular integrity for all treatment groups was also evaluated at baseline and 2 hours after LPS infusion. Additionally, other end points related to systemic and microvascular function (i.e., heart rate, arteriolar diameter, arteriolar blood flow, and functional capillary density) were evaluated for 4 of the treatment groups (no treatment, control NP 10, curcumin-NP 10 mg/kg, and curcumin-selenium-NP 10 mg/kg treatment groups) at baseline, and 2, 4, 6, 12, and 24 hours after LPS infusion.

COc1cc(/C=C/C(=O)CC(=O)/C=C/c2ccc(O)c(OC)c2)ccc1O [curcumin]
vascular permeability compared with the untreated and control NP treatment groups: markedly less vascular permeability
